Test results: US20180155757A1, “IDENTIFICATION OF BACTERIA THAT ARE RESISTANT TO CARBAPENEMS BY MEMBRANE IMPERVIOUSNESS” (BIOMÉRIEUX, priority 2015, published 2018)
Where two headings read alike, the source gives them in different places.

Key:
Experiment in all cases: Etest MIC of indicator carbapenems on MH II agar without/with PMBN
Format in all cases: cell-based
[1] = test system: K. pneumoniae 1204039 (membrane impermeability)
Method in brief: (§1)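 MICs are read directly from Etest strips of imipenem, ertapenem or meropenem after 16–20 h at 35° C. The agar is MH II with PMBN at 0 up to ⅕ of its own MIC, inoculated by swab at 0.5 McFarland.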

[2] = test system: K. pneumoniae 1204035 (membrane impermeability); settings: in µg/mL
Method in brief: as §1

E. coli SAB 100 (porin−) = settings: Escherichia coli
Method in brief: as §1

[3] = test system: K. pneumoniae 1108003 (KPC-3 producer)
Method in brief: as §1

[4] = test system: E. cloacae 1204153 (membrane impermeability); settings: in µg/mL
Method in brief: as §1

[5] = test system: E. cloacae 1109137 (OXA-48 producer)
Method in brief: as §1

[6] = test system: E. cloacae 1204053 (membrane impermeability)
Method in brief: as §1

[7] = test system: E. cloacae 1008074 (VIM producer)
Method in brief: as §1

[8] = test system: E. cloacae 1204052 (membrane impermeability)
Method in brief: as §1

E. coli SAB 108 (porin−) = settings: Escherichia coli
Method in brief: as §1

[9] = test system: K. pneumoniae 1012142 (KPC-2 producer)
Method in brief: as §1

[10] = test system: E. aerogenes 1204050 (membrane impermeability); settings: in µg/mL
Method in brief: as §1

[11] = test system: Enterobacter aerogenes EA 27 (porin−); settings: Klebsiella aerogenes, read-out: MIC
Method in brief: as §1

[12] = test system: K. pneumoniae KP 55 (porin−); settings: Klebsiella pneumoniae
Method in brief: as §1

[13] = test system: E. cloacae 1204058 (membrane impermeability); settings: in µg/mL
Method in brief: as §1

[14] = test system: E. cloacae 1204051 (membrane impermeability)
Method in brief: as §1

[15] = test system: E. coli 1008078 (VIM producer)
Method in brief: as §1

[16] = E. aerogenes EA 27 (porin−), [PMBN] 0, Table 4
[17] = E. aerogenes EA 27 (porin−), [PMBN] 50 μg/ml
[18] = E. aerogenes EA 27 (porin−), [PMBN] 100 μg/ml
[19] = E. aerogenes EA 27 (porin−), [PMBN] 150 μg/ml
[20] = E. aerogenes EA 27 (porin−), [PMBN] 200 μg/ml

## C[C@@H](O)[C@H]1C(=O)N2C(C(=O)O)=C(S[C@@H]3CN[C@H](C(=O)N(C)C)C3)[C@H](C)[C@H]12 [MP, meropenem]
[1]; [PMBN] 0, Table 4a
  MIC: 0.75 µg/mL
[1]; [PMBN] 100, Table 4a
  MIC: 0.5 µg/mL
[1]; [PMBN] 200, Table 4a
  MIC: 0.38 µg/mL
[1]; [PMBN] 300, Table 4a
  MIC: 0.38 µg/mL
[2]; [PMBN] 0, Table 4a
  MIC: 8-12
[2]; [PMBN] 100, Table 4a
  MIC: 2
[2]; [PMBN] 200, Table 4a
  MIC: 1.5
[2]; [PMBN] 300, Table 4a
  MIC: 1.5
E. coli SAB 100 (porin−); [PMBN] 0
  MIC: 0.125 µg/mL
E. coli SAB 100 (porin−); [PMBN] 50 μg/ml
  MIC: 0.094 µg/mL
E. coli SAB 100 (porin−); [PMBN] 100 μg/ml
  MIC: 0.047 µg/mL
E. coli SAB 100 (porin−); [PMBN] 150 μg/ml
  MIC: 0.032 µg/mL
E. coli SAB 100 (porin−); [PMBN] 200 μg/ml
  MIC: 0.032 µg/mL
[3]; [PMBN] 0, Table 4a
  MIC: 6 µg/mL
[3]; [PMBN] 100, Table 4a
  MIC: > 32 µg/mL
[3]; [PMBN] 200, Table 4a
  MIC: > 32 µg/mL
[3]; [PMBN] 300, Table 4a
  MIC: 4 µg/mL
[4]; [PMBN] 0, Table 4a
  MIC: 4
[4]; [PMBN] 100, Table 4a
  MIC: 0.75-1
[4]; [PMBN] 200, Table 4a
  MIC: 1
[4]; [PMBN] 300, Table 4a
  MIC: 0.75
[5]; [PMBN] 0, Table 4a
  MIC: 3 µg/mL
[5]; [PMBN] 100, Table 4a
  MIC: 3 µg/mL
[5]; [PMBN] 200, Table 4a
  MIC: 1.5 µg/mL
[5]; [PMBN] 300, Table 4a
  MIC: 2 µg/mL
[6]; [PMBN] 0, Table 4a
  MIC: 4 µg/mL
[6]; [PMBN] 100, Table 4a
  MIC: 2 µg/mL
[6]; [PMBN] 200, Table 4a
  MIC: 2 µg/mL
[6]; [PMBN] 300, Table 4a
  MIC: 1.5 µg/mL
[7]; [PMBN] 0, Table 4a
  MIC: 0.38 µg/mL
[7]; [PMBN] 100, Table 4a
  MIC: 1.5 µg/mL
[7]; [PMBN] 200, Table 4a
  MIC: 1 µg/mL
[7]; [PMBN] 300, Table 4a
  MIC: 1.5 µg/mL
[8]; [PMBN] 0, Table 4a
  MIC: 6 µg/mL
[8]; [PMBN] 100, Table 4a
  MIC: 0.75 µg/mL
[8]; [PMBN] 200, Table 4a
  MIC: 1.5 µg/mL
[8]; [PMBN] 300, Table 4a
  MIC: 0.5 µg/mL
E. coli SAB 108 (porin−); [PMBN] 0
  MIC: 2 µg/mL
E. coli SAB 108 (porin−); [PMBN] 50 μg/ml
  MIC: 0.125 µg/mL
E. coli SAB 108 (porin−); [PMBN] 100 μg/ml
  MIC: 0.125 µg/mL
E. coli SAB 108 (porin−); [PMBN] 150 μg/ml
  MIC: 0.094 µg/mL
E. coli SAB 108 (porin−); [PMBN] 200 μg/ml
  MIC: 0.094 µg/mL
[9]; [PMBN] 0, Table 4a
  MIC: > 32 µg/mL
[9]; [PMBN] 100, Table 4a
  MIC: > 32 µg/mL
[9]; [PMBN] 200, Table 4a
  MIC: > 32 µg/mL
[9]; [PMBN] 300, Table 4a
  MIC: > 32 µg/mL
[10]; [PMBN] 0, Table 4a
  MIC: >32
[10]; [PMBN] 100, Table 4a
  MIC: 2-4
[10]; [PMBN] 200, Table 4a
  MIC: 1.5-2
[10]; [PMBN] 300, Table 4a
  MIC: 1
[11]; [16]
  MIC: 4 µg/mL
[11]; [17]
  MIC: 0.75 µg/mL
[11]; [18]
  MIC: 0.5 µg/mL
[11]; [19]
  MIC: 0.19 µg/mL
[11]; [20]
  MIC: 0.094 µg/mL
[12]; [PMBN] 0
  MIC: 0.19 µg/mL
[12]; [PMBN] 50 μg/ml
  MIC: 0.125 µg/mL
[12]; [PMBN] 100 μg/ml
  MIC: 0.064 µg/mL
[12]; [PMBN] 150 μg/ml
  MIC: 0.064 µg/mL
[12]; [PMBN] 200 μg/ml
  MIC: 0.047 µg/mL
[13]; [PMBN] 0, Table 4a
  MIC: >32
[13]; [PMBN] 100, Table 4a
  MIC: 2
[13]; [PMBN] 200, Table 4a
  MIC: 0.75
[13]; [PMBN] 300, Table 4a
  MIC: 0.25
[14]; [PMBN] 0, Table 4a
  MIC: 4 µg/mL
[14]; [PMBN] 100, Table 4a
  MIC: 2 µg/mL
[14]; [PMBN] 200, Table 4a
  MIC: 0.25 µg/mL
[14]; [PMBN] 300, Table 4a
  MIC: 0.25 µg/mL
[15]; [PMBN] 0, Table 4a
  MIC: 0.5 µg/mL
[15]; [PMBN] 100, Table 4a
  MIC: 0.5 µg/mL
[15]; [PMBN] 200, Table 4a
  MIC: 0.25 µg/mL
[15]; [PMBN] 300, Table 4a
  MIC: 0.25 µg/mL

## C[C@@H](O)[C@H]1C(=O)N2C(C(=O)O)=C(SCCN=CN)C[C@H]12 [IM, imipenem]
[1]; [PMBN] 0, Table 4a
  MIC: 0.38 µg/mL
[1]; [PMBN] 100, Table 4a
  MIC: 0.38 µg/mL
[1]; [PMBN] 200, Table 4a
  MIC: 0.38 µg/mL
[1]; [PMBN] 300, Table 4a
  MIC: 0.38 µg/mL
[2]; [PMBN] 0, Table 4a
  MIC: 1.5
[2]; [PMBN] 100, Table 4a
  MIC: 0.75
[2]; [PMBN] 200, Table 4a
  MIC: 0.5-0.75
[2]; [PMBN] 300, Table 4a
  MIC: 0.5-1
E. coli SAB 100 (porin−); [PMBN] 0
  MIC: 0.5 µg/mL
E. coli SAB 100 (porin−); [PMBN] 50 μg/ml
  MIC: 0.38 µg/mL
E. coli SAB 100 (porin−); [PMBN] 100 μg/ml
  MIC: 0.25 µg/mL
E. coli SAB 100 (porin−); [PMBN] 150 μg/ml
  MIC: 0.19 µg/mL
E. coli SAB 100 (porin−); [PMBN] 200 μg/ml
  MIC: 0.19 µg/mL
[3]; [PMBN] 0, Table 4a
  MIC: 6 µg/mL
[3]; [PMBN] 100, Table 4a
  MIC: 8 µg/mL
[3]; [PMBN] 200, Table 4a
  MIC: 12 µg/mL
[3]; [PMBN] 300, Table 4a
  MIC: 12 µg/mL
[4]; [PMBN] 0, Table 4a
  MIC: 4
[4]; [PMBN] 100, Table 4a
  MIC: 4
[4]; [PMBN] 200, Table 4a
  MIC: 2
[4]; [PMBN] 300, Table 4a
  MIC: 4
[5]; [PMBN] 0, Table 4a
  MIC: 1.5 µg/mL
[5]; [PMBN] 100, Table 4a
  MIC: 4 µg/mL
[5]; [PMBN] 200, Table 4a
  MIC: 2 µg/mL
[5]; [PMBN] 300, Table 4a
  MIC: 1.5 µg/mL
[6]; [PMBN] 0, Table 4a
  MIC: 3 µg/mL
[6]; [PMBN] 100, Table 4a
  MIC: 3 µg/mL
[6]; [PMBN] 200, Table 4a
  MIC: 3 µg/mL
[6]; [PMBN] 300, Table 4a
  MIC: 3 µg/mL
[7]; [PMBN] 0, Table 4a
  MIC: 3 µg/mL
[7]; [PMBN] 100, Table 4a
  MIC: 3 µg/mL
[7]; [PMBN] 200, Table 4a
  MIC: 8 µg/mL
[7]; [PMBN] 300, Table 4a
  MIC: 6 µg/mL
[8]; [PMBN] 0, Table 4a
  MIC: 3 µg/mL
[8]; [PMBN] 100, Table 4a
  MIC: 3 µg/mL
[8]; [PMBN] 200, Table 4a
  MIC: 2 µg/mL
[8]; [PMBN] 300, Table 4a
  MIC: 1.5 µg/mL
E. coli SAB 108 (porin−); [PMBN] 0
  MIC: 0.75 µg/mL
E. coli SAB 108 (porin−); [PMBN] 50 μg/ml
  MIC: 0.38 µg/mL
E. coli SAB 108 (porin−); [PMBN] 100 μg/ml
  MIC: 0.25 µg/mL
E. coli SAB 108 (porin−); [PMBN] 150 μg/ml
  MIC: 0.25 µg/mL
E. coli SAB 108 (porin−); [PMBN] 200 μg/ml
  MIC: 0.19 µg/mL
[9]; [PMBN] 0, Table 4a
  MIC: > 32 µg/mL
[9]; [PMBN] 100, Table 4a
  MIC: > 32 µg/mL
[9]; [PMBN] 200, Table 4a
  MIC: > 32 µg/mL
[9]; [PMBN] 300, Table 4a
  MIC: > 32 µg/mL
[10]; [PMBN] 0, Table 4a
  MIC: >32
[10]; [PMBN] 100, Table 4a
  MIC: >32
[10]; [PMBN] 200, Table 4a
  MIC: >32
[10]; [PMBN] 300, Table 4a
  MIC: >32
[11]; [16]
  MIC: 12 µg/mL
[11]; [17]
  MIC: 6 µg/mL
[11]; [18]
  MIC: 3 µg/mL
[11]; [19]
  MIC: 3 µg/mL
[11]; [20]
  MIC: 3 µg/mL
[11]; EA 27 (porin−), [PMBN] 0, Table 2
  MIC: 8 µg/mL
[11]; EA 27 (porin−), [PMBN] MIC/5
  MIC: 0.03 µg/mL
[11]; EA 27 (porin−), [PMBN] MIC/8
  MIC: 0.06 µg/mL
[11]; EA 27 (porin−), [PMBN] MIC/10
  MIC: 8 µg/mL
[12]; [PMBN] 0
  MIC: 0.38 µg/mL
[12]; [PMBN] 50 μg/ml
  MIC: 0.25 µg/mL
[12]; [PMBN] 100 μg/ml
  MIC: 0.25 µg/mL
[12]; [PMBN] 150 μg/ml
  MIC: 0.25 µg/mL
[12]; [PMBN] 200 μg/ml
  MIC: 0.19 µg/mL
[13]; [PMBN] 0, Table 4a
  MIC: >32
[13]; [PMBN] 100, Table 4a
  MIC: 12
[13]; [PMBN] 200, Table 4a
  MIC: 4
[13]; [PMBN] 300, Table 4a
  MIC: 3
[14]; [PMBN] 0, Table 4a
  MIC: 1.5 µg/mL
[14]; [PMBN] 100, Table 4a
  MIC: 1.5 µg/mL
[14]; [PMBN] 200, Table 4a
  MIC: 0.75 µg/mL
[14]; [PMBN] 300, Table 4a
  MIC: 0.75 µg/mL
[15]; [PMBN] 0, Table 4a
  MIC: 0.38 µg/mL
[15]; [PMBN] 100, Table 4a
  MIC: 1.5 µg/mL
[15]; [PMBN] 200, Table 4a
  MIC: 0.75 µg/mL
[15]; [PMBN] 300, Table 4a
  MIC: 0.38 µg/mL
